Here are results for seven molecules from patent US6887847B2, “Virus derived antimicrobial peptides” (University of Pittsburgh, priority 2001, dated 2005).

Values after ≈ are worked out from the molar mass of the structure shown. Like-named read-outs stand apart in the source and are kept apart here. Residues, ends and D or L forms follow the SMILES beside them. No end group written: not given here.

In assay [1] the test system is Staphylococcus aureus. Briefly: Bacterial lysis (broth dilution) assay, MBC. Format: cell-based. The text has this: (§1) The assays for growth inhibition of a microbial target can be used to derive a minimum bactericidal concentration (MBC) value for the peptide, i.e., the concentration of peptide required to kill 99.9% of the microbial sample being tested. This value is well known to those in the art as representative of the effectiveness of a particular antimicrobial agent (e.g., an antibiotic) against a particular organism or group of organisms. In assays to detect the MBC of a peptide, growth inhibition of a bacterial population also can be measured with reference to the number of colony forming units (cfu) after exposure to a peptide relative to a control experiment without a peptide.
(§2) Bacterial lysis assay. Bacterial lysis assays were conducted in a manner similar to that described previously (Lehrer, R. I., M. E. Selsted, D. Szklarek, and F. J. 1983. Infect. Immun. 42: 10-4, 1983; Miller, M. A., R. F. Garry, J. M. Jaynes, and R. C. Montelaro, AIDS Res Hum Retroviruses 7: 511-519, 1991). Bacterial suspensions were cultured in Luria-Bertani Broth to mid-log growth phase and washed by two cycles of centrifugation and suspension in 10 mM phosphate buffer. The Abs600 of the suspension was adjusted with 10 mM phosphate buffer such that, upon dilution, 5-10×10^5 cfu/mL would be treated in the assay. Bacteria were incubated for 1 h with two-fold dilutions of peptides (100 μM to 100 nM) in 96-well plates using 10 mM phosphate buffer, pH 7.2, as a diluent. Ten-fold dilutions of bacteria were performed to 1:1000; a 100 μl aliquot from each condition was spread on the surface of tryptic soy agar plates (Difco, Detroit, Mich.) which were incubated overnight. Colonies of surviving bacteria (cfu, colony-forming units) were counted and compared to untreated controls to determine the amount of peptide-induced killing under each condition. Log killing is defined as the log of the ratio of cfu present before and after treatment with peptide. The minimal bactericidal concentration, MBC, is the peptide concentration at which 99.9% (three log) killing is achieved (Pearson et al., Antimicrob. Agents Chemother. 18: 699-708, 1980).
(§3) A limitation of many host-derived antimicrobial peptides is their decreased activity at physiologic (150 mM) NaCl concentration. See Friedrich et al., Antimicrobial Agents and Chemotherapy 43:1542-1548. The peptides WLSA-5 (SEQ ID NO:3) and LL37 were tested against the two index strains at physiologic NaCl. […] The activity of eLLPs and LBUs of this invention were compared to an expanded list of clinical bacterial isolates. These are summarized in Table 2 by comparing their MBCs in phosphate buffer alone (low salt) and phosphate buffer containing 150 mM NaCl (physiologic conditions). Inspection of this table would lead one skilled in the art to conclude that the activity of eLLPs and LBUs compare favorably to the host derived antimicrobial peptides as it relates to the spectrum and potency of antimicrobial activity.

Assay [2] deals with Pseudomonas aeruginosa. Format: cell-based.
Description: as §1, §2, §3

The mark [3] stands for this setting: 0 mM NaCl (phosphate buffer, low salt).

In the case of `CC(C)[C@H](NC(=O)[C@H](Cc1c[nH]c2ccccc12)NC(=O)[C@H](CCCNC(=N)N)NC(=O)[C@H](CCCNC(=N)N)NC(=O)[C@@H](NC(=O)[C@@H](NC(=O)[C@H](CCCNC(=N)N)NC(=O)[C@@H](NC(=O)[C@@H](NC(=O)[C@@H](N)CCCNC(=N)N)C(C)C)C(C)C)C(C)C)C(C)C)C(=O)N[C@@H](CCCNC(=N)N)C(=O)N[C@@H](CCCNC(=N)N)C(=O)O` [WLBU-1] (H-RVVRVVRRWVRR-OH; N-terminus and C-terminus assumed), the MBC was 30,000 nanomolar in assay [1] (setting [3]) and 10,000 nanomolar in assay [1] (150 mM NaCl (physiologic)).

`CC(C)[C@H](N)C(=O)N[C@@H](CCCNC(=N)N)C(=O)N[C@@H](CCCNC(=N)N)C(=O)N[C@H](C(=O)N[C@H](C(=O)N[C@@H](CCCNC(=N)N)C(=O)N[C@@H](CCCNC(=N)N)C(=O)N[C@H](C(=O)N[C@H](C(=O)N[C@@H](CCCNC(=N)N)C(=O)N[C@H](C(=O)N[C@H](C(=O)N[C@@H](CCCNC(=N)N)C(=O)N[C@@H](CCCNC(=N)N)C(=O)N[C@H](C(=O)N[C@H](C(=O)N[C@@H](CCCNC(=N)N)C(=O)N[C@@H](CCCNC(=N)N)C(=O)N[C@H](C(=O)N[C@@H](CCCNC(=N)N)C(=O)N[C@@H](CCCNC(=N)N)C(=O)N[C@H](C(=O)N[C@H](C(=O)N[C@@H](CCCNC(=N)N)C(=O)N[C@@H](CCCNC(=N)N)C(=O)N[C@H](C(=O)N[C@H](C(=O)N[C@@H](CCCNC(=N)N)C(=O)N[C@H](C(=O)N[C@H](C(=O)N[C@@H](CCCNC(=N)N)C(=O)N[C@@H](CCCNC(=N)N)C(=O)N[C@H](C(=O)N[C@H](C(=O)N[C@@H](CCCNC(=N)N)C(=O)N[C@@H](CCCNC(=N)N)C(=O)O)C(C)C)C(C)C)C(C)C)C(C)C)C(C)C)C(C)C)C(C)C)C(C)C)C(C)C)C(C)C)C(C)C)C(C)C)C(C)C)C(C)C)C(C)C)C(C)C)C(C)C` [LBU-3] (H-VRRVVRRVVRVVRRVVRRVRRVVRRVVRVVRRVVRR-OH; N-terminus and C-terminus assumed): the MBC stood at 1500 nM in assay [1] (setting [3]) and 1500 nM (≈ 6.92 µg/mL) in assay [1] (150 mM NaCl (physiologic)).

Take “RRVVRRVRRVVRRVVRVVRRVVRRVRRVVRRVVRVVRRVVRR [LBU-3.5]”: the MBC in assay [2] (150 mM NaCl (physiologic)) was determined as 0.4 µM.

In the case of `CC[C@H](C)[C@H](NC(=O)[C@H](C)NC(=O)[C@H](CCCNC(=N)N)NC(=O)[C@H](CS)NC(=O)[C@H](C)NC(=O)[C@H](CCCNC(=N)N)NC(=O)[C@H](CCC(N)=O)NC(=O)[C@@H](NC(=O)[C@@H](NC(=O)[C@H](CCCNC(=N)N)NC(=O)[C@@H](NC(=O)[C@@H](NC(=O)[C@@H](N)CCCNC(=N)N)C(C)C)[C@@H](C)CC)C(C)C)C(C)C)C(=O)N[C@@H](CCCNC(=N)N)C(=O)N[C@@H](Cc1c[nH]cn1)C(=O)N[C@H](C(=O)N[C@H](C(=O)N[C@@H](CCCNC(=N)N)C(=O)N[C@@H](CCCNC(=N)N)C(=O)N[C@H](C(=O)N[C@@H](CCCNC(=N)N)C(=O)N[C@@H](CCC(N)=O)C(=O)NCC(=O)N[C@@H](CC(C)C)C(=O)N[C@@H](CCCNC(=N)N)C(=O)N[C@@H](CCCNC(=N)N)C(=O)N[C@H](C(=O)N[C@@H](CC(C)C)C(=O)O)[C@@H](C)CC)[C@@H](C)CC)C(C)C)[C@@H](C)CC` [SA-5] (H-RVIRVVQRACRAIRHIVRRIRQGLRRIL-OH; N-terminus and C-terminus assumed), the MBC in assay [2] (setting [3]) is 1 µM; in assay [2] (150 mM NaCl (physiologic)), 1 µM (≈ 3.46 µg/mL); in assay [1] (setting [3]), 1000 nM.

As for “RVVRVVRRVVRRVRRVVRRVVRVVRRVVRRVRRVVRRVVRVVRRVVRR [LBU-4]”, the MBC in assay [1] (setting [3]) and in assay [1] (150 mM NaCl (physiologic)) was 800 nM each time.

Consider `CC(C)[C@H](NC(=O)[C@H](CCCNC(=N)N)NC(=O)[C@H](CCCNC(=N)N)NC(=O)[C@@H](NC(=O)[C@@H](NC(=O)[C@H](CCCNC(=N)N)NC(=O)[C@@H](N)CCCNC(=N)N)C(C)C)C(C)C)C(=O)N[C@@H](CCCNC(=N)N)C(=O)N[C@@H](CCCNC(=N)N)C(=O)N[C@H](C(=O)N[C@H](C(=O)N[C@@H](CCCNC(=N)N)C(=O)N[C@@H](CCCNC(=N)N)C(=O)N[C@H](C(=O)N[C@H](C(=O)N[C@@H](CCCNC(=N)N)C(=O)N[C@H](C(=O)N[C@H](C(=O)N[C@@H](CCCNC(=N)N)C(=O)N[C@@H](CCCNC(=N)N)C(=O)N[C@H](C(=O)N[C@H](C(=O)N[C@@H](CCCNC(=N)N)C(=O)N[C@@H](CCCNC(=N)N)C(=O)O)C(C)C)C(C)C)C(C)C)C(C)C)C(C)C)C(C)C)C(C)C)C(C)C` [LBU-2] (H-RRVVRRVRRVVRRVVRVVRRVVRR-OH), for which, in assay [1] (setting [3]), the MBC was determined as 1500 nM.

“LL37: human cathelicidin, processed form a 37-amino acid amphiphilic α-helical cationic host derived antimicrobial peptide (LLGDFFRKSKEKIGKEFKRIVQRIKDFLRNLVPRTES; Antibacterial peptide LL-37; UniProt P49913 134-170, looked up) [reference compound]”: the “P. aeruginosa killing, influence of NaCl” value in assay [2] (low salt vs physiologic (150 mM) NaCl) is “not affected by NaCl inclusion”.
